Measured values as given in PMC6021390, “A promiscuous cytochrome P450 aromatic O-demethylase for lignin bioconversion” (Nature Communications, 2018).
“Also recorded” adds a separate entry of the source. Where two headings read alike, the source gives them in different places.

Experiments:
GcoA = biological target: T1, GcoA (Amycolatopsis sp., UniProt P0DPQ7); assay: Determination of substrate dissociation constants with GcoA (UV/vis spectral shift titration; fluorescence quenching for vanillin); assay type: binding
T1 construct: GST (N, cleaved yes); made in house; host or cells: E. coli Rosetta 2 (DE3)
T1 sequence (P0DPQ7 1-407): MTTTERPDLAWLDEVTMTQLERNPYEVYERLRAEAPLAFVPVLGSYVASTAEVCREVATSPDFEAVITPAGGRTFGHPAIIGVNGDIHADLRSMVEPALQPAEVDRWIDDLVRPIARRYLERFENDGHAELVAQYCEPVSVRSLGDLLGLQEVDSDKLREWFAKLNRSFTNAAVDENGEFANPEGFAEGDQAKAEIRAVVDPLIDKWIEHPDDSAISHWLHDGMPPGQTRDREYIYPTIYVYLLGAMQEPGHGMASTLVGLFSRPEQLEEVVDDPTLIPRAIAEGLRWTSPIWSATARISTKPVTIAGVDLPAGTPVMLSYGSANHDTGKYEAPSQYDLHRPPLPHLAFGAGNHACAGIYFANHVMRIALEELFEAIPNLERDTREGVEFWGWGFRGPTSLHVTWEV
Description: A total of 0–60 µM of substrate analogs, in 0.25 or 0.5 µM aliquots, were titrated into a cuvette containing 1–6 µM GcoA in 25 mM HEPES, 50 mM NaCl, pH 7.5. The spectrum after each substrate addition was recorded, beginning with no substrate bound. The solution reached equilibrium before the next addition. A difference spectrum was made to illustrate the shift from a low-spin aquo-heme complex to the high-spin substrate-bound complex (spectral shift from 417 nm to 388 nm). […] The absorbance at 388 nm was plotted as a function of [substrate], yielding a quadratic curve that was fit to Eq. (7) to determine the KD.7 ΔAbsobs=ΔAbsmax/2EtL0+Et+KD-L0+Et+KD^2-4Et*L0. Where L0, Et, KD, and ΔAbsmax are the ligand concentrations, total protein (subunit) concentration, the equilibrium dissociation constant, and the maximum Abs388–417 nm, respectively. Reported values are the average of 2 or more measurements.
Since the UV/vis spectra of vanillin and heme overlap, fluorescence quenching was monitored to determine the KD. […] Fluorescence emission intensity was followed upon titration of vanillin (0–350 µM) after equilibrium had been established. The % fluorescence quenched, Eq. (8), was plotted as a function of vanillin and fit to Eq. (7) above, replacing ΔAbsmax with ΔFluorescencemax.8 %Fquenched=Fmax-Fintensity/Fmax×100%.

GcoAB [1] = biological target: T2, GcoAB (Amycolatopsis sp., UniProt P0DPQ7); assay: Aldehyde product determination (tryptophan assay for formaldehyde, dehydrogenase assay for acetaldehyde) versus NADH consumed; assay type: biochemical, Amycolatopsis sp. ATCC 39116; parameters: GST (N, cleaved yes); made in house; host or cells: E. coli Rosetta 2 (DE3); conditions: formaldehyde (acetaldehyde for guaethol); saturating substrate, 300 μM NADH, 0.2 μM GcoAB
T2 sequence (P0DPQ7 1-407): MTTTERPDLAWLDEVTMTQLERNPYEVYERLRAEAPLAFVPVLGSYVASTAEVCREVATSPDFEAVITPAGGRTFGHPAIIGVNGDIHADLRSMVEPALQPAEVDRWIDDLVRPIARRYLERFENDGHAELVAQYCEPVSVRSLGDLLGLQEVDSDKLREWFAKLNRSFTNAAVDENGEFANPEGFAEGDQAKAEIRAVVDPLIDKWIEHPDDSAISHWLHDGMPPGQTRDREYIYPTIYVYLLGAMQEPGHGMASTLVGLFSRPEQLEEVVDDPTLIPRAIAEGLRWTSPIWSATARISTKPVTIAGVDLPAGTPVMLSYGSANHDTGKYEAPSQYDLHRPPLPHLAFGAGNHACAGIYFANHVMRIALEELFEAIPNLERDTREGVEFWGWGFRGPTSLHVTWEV
T2 sequence (P0DPQ8 1-334 partner): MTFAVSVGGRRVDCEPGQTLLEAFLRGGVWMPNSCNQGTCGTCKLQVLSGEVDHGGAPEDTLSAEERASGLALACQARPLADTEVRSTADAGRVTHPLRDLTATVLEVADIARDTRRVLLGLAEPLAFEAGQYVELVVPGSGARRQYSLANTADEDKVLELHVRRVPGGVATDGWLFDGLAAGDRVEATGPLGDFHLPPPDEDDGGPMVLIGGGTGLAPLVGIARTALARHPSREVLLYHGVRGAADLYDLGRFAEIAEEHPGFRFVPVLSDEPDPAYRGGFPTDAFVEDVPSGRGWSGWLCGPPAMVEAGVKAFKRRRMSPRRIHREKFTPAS
Source text: For the quantification of formaldehyde (demethylation) or acetaldehyde (de-ethylation) production, the reaction was monitored via UV/vis or fluorescence (in the case of vanillin) using the same set of conditions as outlined above for specific activity determination. After eight minutes, aliquots of the sample were removed and carried onto the respective aldehyde detection assay. For reactions that produced formaldehyde (e.g., all substrates except guaethol), a colorimetric tryptophan assay was used, described previously. Briefly, 200 µL of the reaction was quenched by adding 200 µL of 0.1% tryptophan solution in 50% ethanol, 200 µL 90% sulfuric acid and 40 µL of 1% FeCl3. The solution was then incubated in a heating block for 90 min at 70 °C. After cooling, the absorbance was read at 575 nm and the [formaldehyde] calculated by comparing to a standard curve made with 0–320 µM formaldehyde. A reaction with just the assay components was treated in the same manner as the reaction samples and used as a baseline. Control reactions included everything but GcoA/B, catalase, and substrate. Reported values are the average of ≥3 measurements.
[Acetaldehyde] produced during the dealkylation of guaethol was also determined by using a colorimetric assay and a generated acetaldehyde standard curve. A kit from BioAssays was used. Briefly, 20 µL of the reacted sample was transferred to a 96-well plate and 80 µL of the working reagent, consisting of NAD/MTT and aldehyde dehydrogenase, was added. The reaction was incubated for 30 min at room temperature and the absorbance read at 565 nm. Aldehyde dehydrogenase and NAD react with acetaldehyde to produce acetic acid and NADH. […] Control reactions included samples without substrate and/or aldehyde dehydrogenase. Reported values are the average of ≥3 measurements.

GcoAB [2] = biological target: T2, GcoAB; assay: HPLC quantification of demethylated aromatic product versus NADH consumed; assay type: biochemical, Amycolatopsis sp. ATCC 39116; parameters: GST (N, cleaved yes); made in house; host or cells: E. coli Rosetta 2 (DE3); conditions: saturating substrate, 300 μM NADH, 0.2 μM GcoAB
Description: Analyte analysis of samples was performed on an Agilent 1200 LC system (Agilent Technologies, Santa Clara, CA) equipped with a G1315A diode array detector (DAD). Each sample and standard was injected at a volume of 10 μL onto a Phenomenex Luna C18(2) column 5 μm, 4.6 × 150 mm column (Phenomenex, Torrance, CA). The column temperature was maintained at 30 °C and the buffers used to separate the analytes of interest was 0.05% acetic acid in water (A)/ acetonitrile (B). The separation was carried out using a gradient program of: (A) = 99% and (B) = 1% at time t = 0; (A) = 99% and (B) = 1% at time t = 5, (A) = 50% and (B) = 50% at t = 35 min; (A) = 1% and (B) = 99% at t = 35.01 min; (A) = 99% and (B) = 1% at t = 37.01 min; (A) = 99% and (B) = 1% at t = 47.00 min. The flow rate was held constant at 0.6 mL min^−1 resulting in a run time of 47 min. Calibration curve concentration for each analyte varied between the ranges of 2.5–200 µg L^−1. A DAD wavelength of 225 nm was used for analysis of the analytes of interest. […] A minimum of 3–5 calibration levels was used with an r^2 coefficient of 0.995 or better for each analyte and a check calibration standard (CCS) was analyzed every 10 samples to insure the integrity of the initial calibration.

GcoAB [3] = biological target: T2, GcoAB; conditions: for binding or catalytic interaction with GcoA: screen of ten O-methylated aromatic compounds
Description: The demethylation of guaiacol and substrate analogs was continuously monitored under steady-state conditions. […] A total of 100 µg/mL catalase was added to each reaction to capture any H2O2 formed during the uncoupled reaction. […] A total of 20–300 µM guaiacol (preferred substrate) or an alternate substrate from a 2.5 mM stock dissolved in DMSO was added and the reaction was monitored via measurement of UV/vis spectra for several minutes. […] A plot of vi vs [guaiacol] was fit to Eq. (2) to obtain kcat, KM, and kcat/KM. For specific activity determination, the above method was used but with saturating (300 µM) guaiacol. […] Reported values are the average of ≥3 measurements and reported errors are standard deviations.
Reactions with vanillin were performed in the same manner described above.

LigM = test system: LigM; parameters: method as in ref 35 (a number printed in a supplementary file, which may have a reference list of its own: not looked up in the article's list); conditions: 0.076 μM LigM, 5 mM H4-folate, pH 8.0, 30 °C, cited from earlier work
LigX = test system: T3, LigX; assay: Cited steady-state O-demethylation of 5,5'-dehydrodivanillate (10-500 uM) by 0.2 uM LigXa, 6 uM LigXc and 0.4 uM LigXd with 500 uM NADH in FE22 buffer, pH 6.0, 30 °C, air.; assay type: biochemical; conditions: cited from earlier work
T3 construct: LigXa with LigXc and LigXd

[4] = substrate: CCOc1ccccc1O; assay: purified protein, by the assay type; conditions: other: 0.2 μM GcoAB, 300 μM NADH, pH 7.5, 25 °C, air
[5] = substrate: COc1cccc(O)c1O; assay: purified protein, by the assay type; conditions: other: 0.2 μM GcoAB, 300 μM NADH, pH 7.5, 25 °C, air
[6] = substrate: COc1ccccc1; assay: purified protein, by the assay type; conditions: other: 0.2 μM GcoAB, 300 μM NADH, pH 7.5, 25 °C, air
[7] = substrate: COc1ccccc1C; assay: purified protein, by the assay type; conditions: other: 0.2 μM GcoAB, 300 μM NADH, pH 7.5, 25 °C, air
[8] = substrate: COc1ccccc1O; assay: purified protein, by the assay type; conditions: other: 0.2 μM GcoAB, 300 μM NADH, pH 7.5, 25 °C, air
[9] = 1–6 μM GcoA, 25 °C, 25 mM HEPES, 50 mM NaCl, pH 7.5, read-out: Compound KD

## COc1ccccc1 [Anisole]
GcoA; [9]
  Kd: 1700 ± 200 nM
GcoAB [1]
  Aldehyde produced per NADH consumed: 1.1 ± 0.01
GcoAB [2]
  Demethylated product: amount produced per NADH consumed: 0.62 ± 0.1

## COc1ccccc1O [Guaiacol, 2-methoxyphenol]
GcoA; [9]
  Kd: 6 ± 2 nM
GcoA; binding to GcoA, read-out: KD
  Kd: 6 nM
GcoAB [3]; 300 μM guaiacol, 0.2 μM GcoA/B, 300 μM NADH, pH 7.5, 25 °C
  specific activity: 4.6 mM NADH sec-1 [mM GcoA]-1
GcoAB [3]; Supplementary Figure 20, 0.2 μM GcoA/B, 300 μM NADH, ambient O2, pH 7.5, 25 °C
  kcat: 6.8 ± 0.5 s⁻¹
GcoAB [3]; Supplementary Table 4, 0.2 μM GcoA/B, 300 μM NADH, 5-300 μM guaiacol, pH 7.5, 25 °C, air
  kcat: 6.8 ± 0.5 s⁻¹
GcoAB [1]
  Aldehyde produced per NADH consumed: 1.2 ± 0.15
GcoAB [2]
  Demethylated product: amount produced per NADH consumed: 1.2 ± 0.3

## COc1ccccc1OC [veratrole]
GcoAB [3]; coupling of NADH consumption to demethylation
  substrate classification with GcoAB: non-substrate/non-binder
GcoAB [3]
  binding or catalytic interaction with GcoA: no detectable binding or catalytic interaction

## COc1cc(C(=O)O)ccc1O [vanillate]
GcoAB [3]
  binding or catalytic interaction with GcoA: no detectable binding or catalytic interaction; also recorded: preclude binding and/or demethylation
LigM
  Km: 630 ± 80 µM
LigM; vanillate 0.1-5 mM, 100 mM Tris, air
  kcat: 5.8 ± 0.25 s⁻¹

## COc1cc(C(=O)O)cc(-c2cc(C(=O)O)cc(OC)c2O)c1O [5,5'-dehydrodivanillate]
LigX
  Km: 64 µM

B1: GcoAB (Amycolatopsis sp. ATCC 39116) (protein)
chain: MTTTERPDLAWLDEVTMTQLERNPYEVYERLRAEAPLAFVPVLGSYVASTAEVCREVATSPDFEAVITPAGGRTFGHPAIIGVNGDIHADLRSMVEPALQPAEVDRWIDDLVRPIARRYLERFENDGHAELVAQYCEPVSVRSLGDLLGLQEVDSDKLREWFAKLNRSFTNAAVDENGEFANPEGFAEGDQAKAEIRAVVDPLIDKWIEHPDDSAISHWLHDGMPPGQTRDREYIYPTIYVYLLGAMQEPGHGMASTLVGLFSRPEQLEEVVDDPTLIPRAIAEGLRWTSPIWSATARISTKPVTIAGVDLPAGTPVMLSYGSANHDTGKYEAPSQYDLHRPPLPHLAFGAGNHACAGIYFANHVMRIALEELFEAIPNLERDTREGVEFWGWGFRGPTSLHVTWEV
[4]
  Km: 15 ± 4 µM
  kcat: 1.4 ± 0.09 s⁻¹
  kcat/Km: 100000 ± 20000 M⁻¹ s⁻¹
[5]
  Km: 30 ± 3 µM
  kcat: 2.1 ± 0.05 s⁻¹
  kcat/Km: 75000 ± 7000 M⁻¹ s⁻¹
[6]
  Km: 43 ± 4 µM
  kcat: 3.5 ± 0.2 s⁻¹
  kcat/Km: 82000 ± 8000 M⁻¹ s⁻¹
[7]
  Km: 27 ± 3 µM
  kcat: 4.6 ± 0.1 s⁻¹
  kcat/Km: 170000 ± 20000 M⁻¹ s⁻¹
[8]
  Km: 60 ± 10 µM
  kcat: 6.8 ± 0.5 s⁻¹
  kcat/Km: 110000 ± 20000 M⁻¹ s⁻¹
